Common to all, as to format: functional
What all share (settings): read-out: ED50 (the source's name)

In one assay the test system is Lu1. Nature of the assay: Cytotoxicity against human Lu1 cells.
Another assay deals with MCF7. Nature of the assay: Cytotoxicity against human MCF7 cells.
In the next assay the test system is LNCaP. As to the kind of experiment: Cytotoxicity against human LNCAP cells.

EC50 data for three compounds are collected here from ChEMBL document CHEMBL1151188, “Cytotoxic withaphysalins from the leaves of Acnistus arborescens” (2004).

Molecules are shown by their SMILES. In brackets after ≈: the same amount, converted by molar mass. A value given as a limit tells only on which side of the number the result lay.

For `CC1=C(C)C(=O)O[C@@H]([C@]2(C)OC(=O)[C@]34CC[C@H]5[C@@H](C[C@H]6O[C@]67[C@@H](O)C=CC(=O)[C@]57C)[C@@H]3CC[C@H]24)C1` (relative stereo) [WITHAPHYSALIN M], the EC50 in the assay with Lu1 is 0.22 µg/mL (≈ 0.456 µM); in the assay on MCF7, 1.2 µg/mL (≈ 2.49 µM); with LNCaP, 1 µg/mL (≈ 2.07 µM).

Turning to `CCOC1O[C@@](C)([C@H]2CC(C)=C(C)C(=O)O2)[C@H]2CC[C@H]3[C@@H]4C[C@H]5O[C@]56[C@@H](O)C=CC(=O)[C@]6(C)[C@H]4CC[C@]123` (relative stereo) [WITHAPHYSALIN O], the results for the EC50 in the assay on Lu1, in the assay with MCF7 and in the assay on LNCaP were 0.16 µg/mL (≈ 0.312 µM), 1 µg/mL (≈ 1.95 µM) and 0.9 µg/mL (≈ 1.76 µM), respectively.

Take `CC1=C(C)C(=O)O[C@@H]([C@]2(C)OC(=O)[C@]34CC[C@H]5[C@@H](C[C@H]6O[C@]67[C@@H](O)CCC(=O)[C@]57C)[C@@H]3CC[C@H]24)C1` (relative stereo) [WITHAPHYSALIN N]: the EC50 in the assay on Lu1 was 9.3 µg/mL (≈ 19.2 µM); in the assay with MCF7, 15 µg/mL (≈ 31 µM); in the assay on LNCaP, more than 20 µg/mL.
